Among the data in ChEMBL document CHEMBL3865812, “Selective killing of cancer cells with triterpenoic acid amides - The substantial role of an aromatic moiety alignment” (Eur J Med Chem, 2016) are EC50, Activity and solubility values, retold here.

Activity calls are given as the source filed them. No cut-off for these calls is given here. Where only a bound is given, the exact number is not on record here.

Series [1] is described as follows: Cytotoxicity against human HT-29 cells measured after 96 hrs by SRB assay. It is filed as functional, cell-based. The following applies: HT-29, 96 h. On the technique in general: The SRB assay estimates cell density from bound dye.
Series [2] is described as follows: Cytotoxicity against human A549 cells measured after 96 hrs by SRB assay. It is filed as functional, cell-based. The note with it: A549, 96 h.
Series [3] can be described thus: Cytotoxicity against human A2780 cells measured after 96 hrs by SRB assay. It is filed as functional, cell-based. The following applies: A2780, 96 h.
Series [4] is described as follows: Cytotoxicity against human 8505C cells measured after 96 hrs by SRB assay. It is filed as functional, cell-based.
Series [5] in a line: Cytotoxicity against mouse NIH/3T3 cells measured after 96 hrs by SRB assay. It is filed as toxicity, NIH3T3.
Series [6] can be described thus: Cytotoxicity against human 518A2 cells measured after 96 hrs by SRB assay. The note with it: 518A2, 96 h. It is filed as functional, cell-based.
A short description of series [7]: Cytotoxicity against human MCF7 cells measured after 96 hrs by SRB assay. It is filed as functional, cell-based. The following applies: MCF7, 96 h.
A short description of series [8]: Cell cycle arrest in human A2780 cells assessed as accumulation at S-phase at 6 uM measured after 24 hrs by propidium iodide staining based FACS analysis. It is filed as functional. For orientation: A flow cytometer gives signals particle by particle.
Series [9] concerns A2780. Briefly: Induction of apoptosis in human A2780 cells assessed as secondary necrotic cells at 6 uM measured after 2 days by Annexin V/FITC/propidium iodide staining-based FACS analysis. It is filed as functional, cell-based.
Series [10] has as its system A2780. Briefly: Induction of apoptosis in human A2780 cells assessed as increase in apoptotic cells at 6 uM measured after 2 days by Annexin V/FITC/propidium iodide staining-based FACS analysis. It is filed as functional, cell-based.
Series [11] is described as follows: Cell cycle arrest in human A2780 cells assessed as loss of G2 peak at 6 uM measured after 24 hrs by propidium iodide staining based FACS analysis. It is filed as functional.
A short description of series [12]: Cell cycle arrest in human A2780 cells assessed as sub-G1 peak appearance at 6 uM measured after 48 hrs by propidium iodide staining based FACS analysis. It is filed as functional.
Series [13] can be described thus: Cell cycle arrest in human A2780 cells assessed as decrease in accumulation of cells at S-phase at 6 uM measured after 48 hrs by propidium iodide staining based FACS analysis. It is filed as functional.
Series [14] in a line: Cell cycle arrest in human A2780 cells assessed as decrease in G1 peak at 6 uM measured after 24 hrs by propidium iodide staining based FACS analysis. It is filed as functional.
A short description of series [15]: Solubility of compound in water. It is filed as physicochemical. The note with it: buffer.

The term EC50 denotes the concentration at which the effect is half-maximal. Low values mean an effect from little substance, high ones a need for much substance. Regarding `CC(=O)O[C@H]1C[C@]2(C)[C@H]3CC=C4[C@@H]5[C@@H](C)[C@H](C)CC[C@]5(C(=O)O)CC[C@@]4(C)[C@]3(C)CC[C@H]2C(C)(C)[C@H]1OC(C)=O`, the concentration for a half-maximal effect (EC50) in [1] is 16.2 µM; in series [2], 15.6 µM; in series [3], 17.9 µM; in series [4] it was 15.6 µM; in series [6] it was 17.9 µM; in [7], 10.4 µM. For the same compound, a half-maximal effect in [5] (EC50 at 96 h) was put at 12.7 µM.

As to `CC(=O)O[C@H]1C[C@]2(C)[C@H]3CC=C4[C@@H]5[C@@H](C)[C@H](C)CC[C@]5(C(=O)Nc5ccncc5)CC[C@@]4(C)[C@]3(C)CC[C@H]2C(C)(C)[C@H]1OC(C)=O`, the 50% effective concentration (EC50) worked out at 9.4 µM in series [1]; 10.1 µM in series [2]; 8.3 µM in series [3]; 8.5 µM in series [4]; 8.3 µM in [6]; 9 µM in series [7]. This compound also had a concentration giving a half-maximal response (EC50) at 96 h in series [5] of 5.7 µM.

Turning to `CC1(C)CC[C@]2(C(=O)O)CC[C@]3(C)C(=CC[C@@H]4[C@@]5(C)C[C@H](O)[C@H](O)C(C)(C)[C@@H]5CC[C@]43C)[C@@H]2C1` [AUGUSTIC ACID], the EC50 was over 30 µM in series [1], 25.7 µM in series [6] and 25.1 µM in series [7]. Moreover, in series [5], the EC50 at 96 h was over 30 µM.

`CC(=O)O[C@H]1C[C@]2(C)[C@H]3CC=C4[C@@H]5CC(C)(C)CC[C@]5(C(=O)O)CC[C@@]4(C)[C@]3(C)CC[C@H]2C(C)(C)[C@H]1OC(C)=O`: the EC50 in series [1] was found to be 23.1 µM; in series [6], 13.8 µM; in series [7], 16.1 µM. Further, in [5], the EC50 at 96 h was over 30 µM.

As for `CC(=O)O[C@H]1C[C@]2(C)[C@H]3CC=C4[C@@H]5[C@@H](C)[C@H](C)CC[C@]5(C(=O)Nc5cccc6ncccc56)CC[C@@]4(C)[C@]3(C)CC[C@H]2C(C)(C)[C@H]1OC(C)=O`, the EC50 came out at 3.6 µM in series [1]; 3.7 µM in series [2]; 2.7 µM in series [3]; 3.2 µM in [4]; 2 µM in series [6]; 5.5 µM in series [7]. The compound further showed an EC50 at 96 h in series [5] of over 60 µM.

Consider `CC(=O)O[C@H]1CC[C@]2(C)[C@H]3CC=C4[C@@H]5[C@@H](C)[C@H](C)CC[C@]5(C(=O)Nc5cccc6ncccc56)CC[C@@]4(C)[C@]3(C)CC[C@H]2C1(C)C`, for which the EC50 in series [1] worked out at 5.1 µM; in series [2], 5.1 µM; in series [3], 4.4 µM; in series [4] it was 3.5 µM; in series [6] it was 3.5 µM; in series [7], 3.9 µM. The compound also showed a 50% effective concentration (EC50) at 96 h in [5] of 3.5 µM.

For the compound `CC(=O)O[C@H]1C[C@]2(C)[C@H]3CC=C4[C@@H]5CC(C)(C)CC[C@]5(C(=O)Nc5cccc6ncccc56)CC[C@@]4(C)[C@]3(C)CC[C@H]2C(C)(C)[C@H]1OC(C)=O`, the EC50 in series [1] was determined as 2.4 µM; in series [2], 3 µM; in [3] it was 0.7 µM; in [4] it was 2.3 µM; in [6], 1.2 µM; in series [7] it was 2.5 µM. For the same compound, the outcome (in series [8]; in the series with A2780 [9]; in the series with A2780 [10]; in series [11]; in series [12]; in [13]) was Active. Also, the outcome in series [14] was Active. This compound also yielded an EC50 at 96 h in [5] of 8.6 µM.

In the case of `CC(=O)O[C@H]1C[C@]2(C)[C@H]3CC=C4[C@@H]5[C@@H](C)[C@H](C)CC[C@]5(C(=O)Nc5ccnc6ccccc56)CC[C@@]4(C)[C@]3(C)CC[C@H]2C(C)(C)[C@H]1OC(C)=O`, the half-maximal effective concentration (EC50) was determined as 5.5 µM in series [1]; 8.2 µM in series [2]; 3.5 µM in series [3]; 6.6 µM in series [4]; 6.4 µM in series [6]; 4 µM in series [7]. The same compound displayed a concentration for a half-maximal effect (EC50) at 96 h in [5] of 5.2 µM. Also, the solubility entry in [15] is on record as “Insoluble”.

On to `CC(=O)O[C@H]1C[C@]2(C)[C@H]3CC=C4[C@@H]5[C@@H](C)[C@H](C)CC[C@]5(C(=O)Nc5ccc6ncccc6c5)CC[C@@]4(C)[C@]3(C)CC[C@H]2C(C)(C)[C@H]1OC(C)=O`, for which the EC50 in [1] was 9.2 µM; in [2], 5.3 µM; in [3], 4.2 µM; in series [4], 4.3 µM; in series [6], 4.2 µM; in series [7] it was 6.5 µM. In series [5], this compound yielded an EC50 at 96 h of 0.9 µM. In series [15], the solubility result is “Insoluble”.

Regarding `CC(=O)O[C@H]1C[C@]2(C)[C@H]3CC=C4[C@@H]5[C@@H](C)[C@H](C)CC[C@]5(C(=O)Nc5cnc6ccccc6c5)CC[C@@]4(C)[C@]3(C)CC[C@H]2C(C)(C)[C@H]1OC(C)=O`, the EC50 is 6.5 µM in [1]; 3.4 µM in series [2]; 2.8 µM in series [3]; 3.1 µM in series [4]; 2.5 µM in series [6]; 3.2 µM in series [7]. For the same compound, the EC50 at 96 h in [5] was found to be 2.2 µM. The solubility result in [15] is on record as “Insoluble”.

As for `CC(=O)O[C@H]1C[C@]2(C)[C@H]3CC=C4[C@@H]5[C@@H](C)[C@H](C)CC[C@]5(C(=O)Nc5ccc6cccnc6c5)CC[C@@]4(C)[C@]3(C)CC[C@H]2C(C)(C)[C@H]1OC(C)=O`, the EC50 in series [1] was found to be 2 µM; in series [2], 3.1 µM; in series [3], 1.8 µM; in [4] it was 2.5 µM; in [6] it was 2.4 µM; in [7] it was 1.6 µM. The response in series [5] was half-maximal at 1.8 µM (EC50 at 96 h). Moreover, the solubility result in series [15] is given as “Insoluble”.

In the case of `CC(=O)O[C@H]1C[C@]2(C)[C@H]3CC=C4[C@@H]5CC(C)(C)CC[C@]5(C(=O)Nc5ccc6cccnc6c5)CC[C@@]4(C)[C@]3(C)CC[C@H]2C(C)(C)[C@H]1OC(C)=O`, the EC50 in [1] was 1.3 µM; in series [2], 2.6 µM; in series [3], 1 µM; in series [4], 1.6 µM; in [6] it was 1.6 µM; in series [7], 1.4 µM. The compound further gave an EC50 at 96 h in series [5] of 0.7 µM. Besides, the solubility result in series [15] is reported as “Insoluble”.

On to `CC(=O)O[C@H]1C[C@]2(C)[C@H]3CC=C4[C@@H]5[C@@H](C)[C@H](C)CC[C@]5(C(=O)Nc5cccc6cccnc56)CC[C@@]4(C)[C@]3(C)CC[C@H]2C(C)(C)[C@H]1OC(C)=O`, for which the concentration giving a half-maximal response (EC50) in [1] is over 30 µM; in series [2] it was over 30 µM; in series [3], 6.7 µM; in series [4], over 30 µM; in series [6], 13.3 µM; in [7], over 30 µM. Also, the EC50 at 96 h in series [5] was over 30 µM. In addition, the solubility result in series [15] is on record as “Insoluble”.

Turning to `CC(=O)O[C@H]1C[C@]2(C)[C@H]3CC=C4[C@@H]5[C@@H](C)[C@H](C)CC[C@]5(C(=O)Nc5cccnc5)CC[C@@]4(C)[C@]3(C)CC[C@H]2C(C)(C)[C@H]1OC(C)=O`, the EC50 in series [1] amounted to 3.2 µM; in [2], 3.5 µM; in series [3] it was 2 µM; in series [4], 2.7 µM; in series [6] it was 2 µM; in series [7], 3.5 µM. The EC50 at 96 h in series [5] was 4.2 µM.

Consider `CC(=O)O[C@H]1C[C@]2(C)[C@H]3CC=C4[C@@H]5CC(C)(C)CC[C@]5(C(=O)Nc5cccnc5)CC[C@@]4(C)[C@]3(C)CC[C@H]2C(C)(C)[C@H]1OC(C)=O`, for which the 50% effective concentration (EC50) was 2.2 µM in series [1]; 2.8 µM in series [2]; 0.9 µM in series [3]; 2.3 µM in series [4]; 1.7 µM in series [6]; 2 µM in [7]. In addition, the response in series [5] was half-maximal at 2.4 µM (EC50 at 96 h).

Take `CC(=O)O[C@H]1C[C@]2(C)[C@H]3CC=C4[C@@H]5CC(C)(C)CC[C@]5(C(=O)Nc5ccncc5)CC[C@@]4(C)[C@]3(C)CC[C@H]2C(C)(C)[C@H]1OC(C)=O`: the EC50 in series [1] came to 2.7 µM; in series [2], 4 µM; in series [3], 1.6 µM; in series [4], 4.1 µM; in series [6], 4.2 µM; in series [7], 3.1 µM. Moreover, the EC50 at 96 h in series [5] is 1.8 µM.

`CC(=O)O[C@H]1C[C@]2(C)[C@H]3CC=C4[C@@H]5CC(C)(C)CC[C@]5(C(=O)Nc5cccc6cccnc56)CC[C@@]4(C)[C@]3(C)CC[C@H]2C(C)(C)[C@H]1OC(C)=O`: the concentration for a half-maximal effect (EC50) in series [1] is over 30 µM; in series [2], over 30 µM; in series [3], 5.1 µM; in [4], 16.1 µM; in [6], 6.2 µM; in series [7], 24.6 µM. In series [5], this compound returned an EC50 at 96 h of over 30 µM. Besides, in [15], the solubility entry was “Insoluble”.

As to `C[C@H]1[C@H](C)CC[C@]2(C(=O)O)CC[C@]3(C)C(=CC[C@@H]4[C@@]5(C)C[C@H](O)[C@H](O)C(C)(C)[C@@H]5CC[C@]43C)[C@H]12`, the concentration giving a half-maximal response (EC50) in [1] is over 30 µM; in series [2], over 30 µM; in series [3], 24.9 µM; in [4], over 30 µM; in [6], over 30 µM; in [7] it was 29.1 µM. In series [5], this compound came in with a 50% effective concentration (EC50) at 96 h of over 30 µM.
